# Read-outs that look alike come from different tables or passages of the source.
# Columns and labels:
# UreG = UreG (Helicobacter pylori, UniProt Q09066); experiment: biochemical; format: binding, H. pylori; conditions: for ΔTm at 50 µM: read-out: thermal shift on the melting temperature of UreG
# H. pylori = experiment: Growth of H. pylori in neutral and acidic brucella broth (OD600); format: cell-based
# [1] = UreG + compound 50μM, Temperature 30.19
# [2] = UreG + compound 50μM, Temperature 30.56
# [3] = UreG + compound 50μM, Temperature 30.94
# [4] = UreG + compound 50μM, Temperature 31.33
# [5] = UreG + compound 50μM, Temperature 31.72
# [6] = UreG + compound 50μM, Temperature 32.09
# [7] = UreG + compound 50μM, Temperature 32.47
# [8] = UreG + compound 50μM, Temperature 32.85
# [9] = UreG + compound 50μM, Temperature 33.30
# [10] = UreG + compound 50μM, Temperature 33.65
# [11] = UreG + compound 50μM, Temperature 34.08
# [12] = UreG + compound 50μM, Temperature 34.47
# [13] = UreG + compound 50μM, Temperature 34.84
# [14] = UreG + compound 50μM, Temperature 35.21
# [15] = UreG + compound 50μM, Temperature 35.58
# [16] = UreG + compound 50μM, Temperature 35.96
# [17] = UreG + compound 50μM, Temperature 36.34
# [18] = UreG + compound 50μM, Temperature 36.71
# [19] = UreG + compound 50μM, Temperature 37.48
# [20] = UreG + compound 50μM, Temperature 37.86
# [21] = UreG + compound 50μM, Temperature 38.23
# [22] = UreG + compound 50μM, Temperature 38.61
# [23] = UreG + compound 50μM, Temperature 38.99
# [24] = UreG + compound 50μM, Temperature 39.38
# [25] = UreG + compound 50μM, Temperature 39.76
# [26] = UreG + compound 50μM, Temperature 40.14
# [27] = UreG + compound 50μM, Temperature 40.52
# [28] = UreG + compound 50μM, Temperature 40.91
# [29] = UreG + compound 50μM, Temperature 41.29
# [30] = UreG + compound 50μM, Temperature 41.66
# [31] = UreG + compound 50μM, Temperature 42.04
# [32] = UreG + compound 50μM, Temperature 42.42
# [33] = UreG + compound 50μM, Temperature 42.81
# [34] = UreG + compound 50μM, Temperature 43.18
# [35] = UreG + compound 50μM, Temperature 43.56
# [36] = UreG + compound 50μM, Temperature 43.94
# [37] = UreG + compound 50μM, Temperature 44.33
# [38] = UreG + compound 50μM, Temperature 44.71
# [39] = UreG + compound 50μM, Temperature 45.09
# [40] = UreG + compound 50μM, Temperature 45.47
# [41] = UreG + compound 50μM, Temperature 45.85
# [42] = UreG + compound 50μM, Temperature 46.23
# [43] = UreG + compound 50μM, Temperature 46.60
# [44] = UreG + compound 50μM, Temperature 46.99
# [45] = UreG + compound 50μM, Temperature 47.37
# [46] = UreG + compound 50μM, Temperature 47.75
# [47] = UreG + compound 50μM, Temperature 48.13
# [48] = UreG + compound 50μM, Temperature 48.52
# [49] = UreG + compound 50μM, Temperature 48.89
# [50] = UreG + compound 50μM, Temperature 49.28
# [51] = UreG + compound 50μM, Temperature 49.65
# [52] = UreG + compound 50μM, Temperature 50.04
# [53] = UreG + compound 50μM, Temperature 50.42
# [54] = UreG + compound 50μM, Temperature 50.80
# [55] = UreG + compound 50μM, Temperature 51.19
# [56] = UreG + compound 50μM, Temperature 51.56
# [57] = UreG + compound 50μM, Temperature 51.96
# [58] = UreG + compound 50μM, Temperature 52.34
# [59] = UreG + compound 50μM, Temperature 52.72
# [60] = UreG + compound 50μM, Temperature 53.10
# [61] = UreG + compound 50μM, Temperature 53.48
# [62] = UreG + compound 50μM, Temperature 53.86
# [63] = UreG + compound 50μM, Temperature 54.24
# [64] = UreG + compound 50μM, Temperature 54.62
# [65] = UreG + compound 50μM, Temperature 55.00
# [66] = UreG + compound 50μM, Temperature 55.38
# [67] = UreG + compound 50μM, Temperature 55.77
# UreG, sequence (Q09066 whole entry): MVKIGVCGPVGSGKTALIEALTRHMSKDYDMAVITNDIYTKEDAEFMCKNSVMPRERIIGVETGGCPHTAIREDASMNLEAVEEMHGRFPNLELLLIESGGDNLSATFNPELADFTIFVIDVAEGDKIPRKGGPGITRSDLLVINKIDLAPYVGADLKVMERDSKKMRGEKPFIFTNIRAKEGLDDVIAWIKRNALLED
smiles,measurement,setting,value
Cc1cccc(N2CCN(C(=O)c3cc(S(=O)(=O)N(C)C)ccc3N3CCCC3)CC2)c1C [cmpd4],Normalized fluo,UreG,0.61
same,Normalized fluo,UreG; [1],4.76
same,Normalized fluo,UreG; [2],4.12
same,Normalized fluo,UreG; [3],3.54
same,Normalized fluo,UreG; [4],2.90
same,Normalized fluo,UreG; [5],2.50
same,Normalized fluo,UreG; [6],2.10
same,Normalized fluo,UreG; [7],1.61
same,Normalized fluo,UreG; [8],1.32
same,Normalized fluo,UreG; [9],0.93
same,Normalized fluo,UreG; [10],0.64
same,Normalized fluo,UreG; [11],0.41
same,Normalized fluo,UreG; [12],0.19
same,Normalized fluo,UreG; [13],0.16
same,Normalized fluo,UreG; [14],0.06
same,Normalized fluo,UreG; [15],3.2e-7
same,Normalized fluo,UreG; [16],0.09
same,Normalized fluo,UreG; [17],0.11
same,Normalized fluo,UreG; [18],0.29
same,Normalized fluo,UreG; [19],0.97
same,Normalized fluo,UreG; [20],1.58
same,Normalized fluo,UreG; [21],2.12
same,Normalized fluo,UreG; [22],2.84
same,Normalized fluo,UreG; [23],3.60
same,Normalized fluo,UreG; [24],4.60
same,Normalized fluo,UreG; [25],5.58
same,Normalized fluo,UreG; [26],6.65
same,Normalized fluo,UreG; [27],7.99
same,Normalized fluo,UreG; [28],9.53
same,Normalized fluo,UreG; [29],11.09
same,Normalized fluo,UreG; [30],12.65
same,Normalized fluo,UreG; [31],14.59
same,Normalized fluo,UreG; [32],16.59
same,Normalized fluo,UreG; [33],18.72
same,Normalized fluo,UreG; [34],21.02
same,Normalized fluo,UreG; [35],23.41
same,Normalized fluo,UreG; [36],25.90
same,Normalized fluo,UreG; [37],28.66
same,Normalized fluo,UreG; [38],31.01
same,Normalized fluo,UreG; [39],34.36
same,Normalized fluo,UreG; [40],37.25
same,Normalized fluo,UreG; [41],40.25
same,Normalized fluo,UreG; [42],43.53
same,Normalized fluo,UreG; [43],46.72
same,Normalized fluo,UreG; [44],50.00
same,Normalized fluo,UreG; [45],53.25
same,Normalized fluo,UreG; [46],56.55
same,Normalized fluo,UreG; [47],59.79
same,Normalized fluo,UreG; [48],62.98
same,Normalized fluo,UreG; [49],66.11
same,Normalized fluo,UreG; [50],69.46
same,Normalized fluo,UreG; [51],72.30
same,Normalized fluo,UreG; [52],75.42
same,Normalized fluo,UreG; [53],78.05
same,Normalized fluo,UreG; [54],80.94
same,Normalized fluo,UreG; [55],83.37
same,Normalized fluo,UreG; [56],85.74
same,Normalized fluo,UreG; [57],88.30
same,Normalized fluo,UreG; [58],90.21
same,Normalized fluo,UreG; [59],92.02
same,Normalized fluo,UreG; [60],93.58
same,Normalized fluo,UreG; [61],95.15
same,Normalized fluo,UreG; [62],96.31
same,Normalized fluo,UreG; [63],97.30
same,Normalized fluo,UreG; [64],98.18
same,Normalized fluo,UreG; [65],98.87
same,Normalized fluo,UreG; [66],99.53
same,Normalized fluo,UreG; [67],100.00
same,ΔTm at 50 µM,UreG,~2.5 °C
same,OD600(pH5),"H. pylori; acidic brucella broth pH 5.0, 24 h, control 0.93",0.46
same,OD600(pH5),"H. pylori; acidic brucella broth pH 5.0, 24 h, control 0.93, listed as cmp4",0.464
same,OD600 (pH7),"H. pylori; neutral medium, 24 h, control 0.18",0.141
O=C(Cn1c2ccccc2c(=O)c2ccccc21)N/N=C/c1cc([N+](=O)[O-])ccc1N1CCCCCC1 [cmpd8],Normalized fluo,UreG,1.54
same,Normalized fluo,UreG; [1],6.82
same,Normalized fluo,UreG; [2],5.74
same,Normalized fluo,UreG; [3],4.76
same,Normalized fluo,UreG; [4],4.03
same,Normalized fluo,UreG; [5],3.29
same,Normalized fluo,UreG; [6],2.61
same,Normalized fluo,UreG; [7],2.02
same,Normalized fluo,UreG; [8],1.65
same,Normalized fluo,UreG; [9],1.24
same,Normalized fluo,UreG; [10],0.72
same,Normalized fluo,UreG; [11],0.51
same,Normalized fluo,UreG; [12],0.31
same,Normalized fluo,UreG; [13],0.0654
same,Normalized fluo,UreG; [14],0.00
same,Normalized fluo,UreG; [15],0.22
same,Normalized fluo,UreG; [16],0.34
same,Normalized fluo,UreG; [17],0.64
same,Normalized fluo,UreG; [18],0.86
same,Normalized fluo,UreG; [19],2.00
same,Normalized fluo,UreG; [20],2.40
same,Normalized fluo,UreG; [21],3.05
same,Normalized fluo,UreG; [22],3.75
same,Normalized fluo,UreG; [23],4.78
same,Normalized fluo,UreG; [24],5.95
same,Normalized fluo,UreG; [25],7.06
same,Normalized fluo,UreG; [26],8.20
same,Normalized fluo,UreG; [27],9.33
same,Normalized fluo,UreG; [28],10.80
same,Normalized fluo,UreG; [29],12.52
same,Normalized fluo,UreG; [30],14.35
same,Normalized fluo,UreG; [31],16.04
same,Normalized fluo,UreG; [32],18.03
same,Normalized fluo,UreG; [33],19.94
same,Normalized fluo,UreG; [34],21.90
same,Normalized fluo,UreG; [35],24.29
same,Normalized fluo,UreG; [36],26.66
same,Normalized fluo,UreG; [37],29.44
same,Normalized fluo,UreG; [38],32.01
same,Normalized fluo,UreG; [39],34.92
same,Normalized fluo,UreG; [40],37.82
same,Normalized fluo,UreG; [41],40.91
same,Normalized fluo,UreG; [42],43.67
same,Normalized fluo,UreG; [43],46.80
same,Normalized fluo,UreG; [44],50.61
same,Normalized fluo,UreG; [45],53.88
same,Normalized fluo,UreG; [46],56.90
same,Normalized fluo,UreG; [47],60.37
same,Normalized fluo,UreG; [48],63.48
same,Normalized fluo,UreG; [49],67.05
same,Normalized fluo,UreG; [50],70.49
same,Normalized fluo,UreG; [51],73.41
same,Normalized fluo,UreG; [52],76.19
same,Normalized fluo,UreG; [53],79.38
same,Normalized fluo,UreG; [54],82.32
same,Normalized fluo,UreG; [55],85.00
same,Normalized fluo,UreG; [56],87.48
same,Normalized fluo,UreG; [57],89.89
same,Normalized fluo,UreG; [58],91.67
same,Normalized fluo,UreG; [59],93.50
same,Normalized fluo,UreG; [60],95.00
same,Normalized fluo,UreG; [61],96.08
same,Normalized fluo,UreG; [62],97.41
same,Normalized fluo,UreG; [63],98.54
same,Normalized fluo,UreG; [64],99.22
same,Normalized fluo,UreG; [65],99.67
same,Normalized fluo,UreG; [66],100.00
same,Normalized fluo,UreG; [67],99.66
same,ΔTm at 50 µM,UreG,~2.5 °C
same,OD600(pH5),H. pylori; pH 5,0.47
same,OD600 (pH7),H. pylori; pH 7,0.116
